# According to publication PMC5064019, “Nicotinamide is an endogenous agonist for a C. elegans TRPV OSM-9 and OCR-4 channel” (Nature Communications, 2016):
# Experiments:
# Nan–Iav TRPV channel = molecular target: T1, Nan–Iav TRPV channel (Drosophila melanogaster, UniProt Q9VUD5+Q9W3W0); test: two-electrode voltage clamp, Xenopus oocytes, Hill fit; assay type: cell-based; conditions: read-out: K1/2
# T1 construct: iav cDNA in pCR4-TOPO, synthesized nan cDNA in pcDNA3.1; cRNAs co-injected in Xenopus oocytes; heteromeric channel
# T1 sequence (Q9VUD5 1-833): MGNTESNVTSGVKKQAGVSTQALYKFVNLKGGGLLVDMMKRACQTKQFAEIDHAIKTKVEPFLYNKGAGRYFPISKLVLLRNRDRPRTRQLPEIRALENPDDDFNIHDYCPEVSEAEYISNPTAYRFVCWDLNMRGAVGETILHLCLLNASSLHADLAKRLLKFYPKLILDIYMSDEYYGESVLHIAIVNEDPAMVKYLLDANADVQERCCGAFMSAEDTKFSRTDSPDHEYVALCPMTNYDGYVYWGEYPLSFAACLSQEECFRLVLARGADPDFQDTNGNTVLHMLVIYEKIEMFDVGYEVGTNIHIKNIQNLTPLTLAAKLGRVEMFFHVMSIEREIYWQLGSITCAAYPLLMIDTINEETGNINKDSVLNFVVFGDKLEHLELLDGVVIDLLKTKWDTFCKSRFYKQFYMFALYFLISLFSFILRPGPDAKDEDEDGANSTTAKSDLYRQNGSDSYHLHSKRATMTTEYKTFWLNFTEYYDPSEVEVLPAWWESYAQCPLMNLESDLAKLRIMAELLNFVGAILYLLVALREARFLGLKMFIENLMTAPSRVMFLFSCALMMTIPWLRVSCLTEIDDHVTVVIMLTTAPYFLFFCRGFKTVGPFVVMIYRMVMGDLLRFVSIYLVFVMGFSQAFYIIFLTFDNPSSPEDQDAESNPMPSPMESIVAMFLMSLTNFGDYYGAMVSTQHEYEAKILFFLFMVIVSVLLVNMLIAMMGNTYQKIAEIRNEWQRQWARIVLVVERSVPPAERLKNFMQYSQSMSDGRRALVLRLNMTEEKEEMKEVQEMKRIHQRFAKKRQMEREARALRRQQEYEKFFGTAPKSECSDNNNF
# T1 sequence (Q9W3W0 1-1123): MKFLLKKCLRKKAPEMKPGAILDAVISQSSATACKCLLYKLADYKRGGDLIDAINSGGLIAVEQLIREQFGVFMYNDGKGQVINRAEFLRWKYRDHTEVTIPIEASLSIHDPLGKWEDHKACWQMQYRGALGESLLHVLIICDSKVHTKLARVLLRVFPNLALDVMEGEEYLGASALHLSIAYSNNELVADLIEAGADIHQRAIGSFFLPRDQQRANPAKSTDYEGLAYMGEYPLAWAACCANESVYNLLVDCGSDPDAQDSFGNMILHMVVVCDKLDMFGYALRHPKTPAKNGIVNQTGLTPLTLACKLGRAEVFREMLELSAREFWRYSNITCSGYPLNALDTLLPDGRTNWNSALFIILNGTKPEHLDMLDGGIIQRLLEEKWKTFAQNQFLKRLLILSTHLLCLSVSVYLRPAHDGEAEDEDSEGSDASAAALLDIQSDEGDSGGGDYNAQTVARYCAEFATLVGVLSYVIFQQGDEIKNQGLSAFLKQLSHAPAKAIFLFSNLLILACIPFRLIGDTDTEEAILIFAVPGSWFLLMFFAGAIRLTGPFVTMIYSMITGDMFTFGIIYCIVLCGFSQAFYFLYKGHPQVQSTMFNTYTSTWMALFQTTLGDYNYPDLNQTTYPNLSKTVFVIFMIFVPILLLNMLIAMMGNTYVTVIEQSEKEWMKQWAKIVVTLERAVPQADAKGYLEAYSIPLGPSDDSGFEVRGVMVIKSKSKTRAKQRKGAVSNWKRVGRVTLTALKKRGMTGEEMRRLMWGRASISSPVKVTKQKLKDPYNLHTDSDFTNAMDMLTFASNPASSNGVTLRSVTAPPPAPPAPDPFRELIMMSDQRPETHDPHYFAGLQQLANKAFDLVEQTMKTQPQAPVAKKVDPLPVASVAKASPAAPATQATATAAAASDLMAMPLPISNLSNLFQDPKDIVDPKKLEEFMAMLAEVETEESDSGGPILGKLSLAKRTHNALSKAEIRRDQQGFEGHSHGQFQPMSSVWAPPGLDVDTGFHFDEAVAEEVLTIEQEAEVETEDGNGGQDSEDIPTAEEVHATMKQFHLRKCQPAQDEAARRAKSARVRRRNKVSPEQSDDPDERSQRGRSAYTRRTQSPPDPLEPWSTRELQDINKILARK
# OSM-9–OCR-4 TRPV channel = molecular target: T2, OSM-9–OCR-4 TRPV channel (Caenorhabditis elegans, UniProt G5EBV8+Q9N3Y9); test: as above; assay type: cell-based; conditions: read-out: K1/2
# T2 construct: untagged cDNAs (osm-9 in pGEMHE, ocr-4 in pOX); cRNAs co-injected in Xenopus oocytes; heterotetramer, likely 2:2
# T2 sequence (G5EBV8 1-937): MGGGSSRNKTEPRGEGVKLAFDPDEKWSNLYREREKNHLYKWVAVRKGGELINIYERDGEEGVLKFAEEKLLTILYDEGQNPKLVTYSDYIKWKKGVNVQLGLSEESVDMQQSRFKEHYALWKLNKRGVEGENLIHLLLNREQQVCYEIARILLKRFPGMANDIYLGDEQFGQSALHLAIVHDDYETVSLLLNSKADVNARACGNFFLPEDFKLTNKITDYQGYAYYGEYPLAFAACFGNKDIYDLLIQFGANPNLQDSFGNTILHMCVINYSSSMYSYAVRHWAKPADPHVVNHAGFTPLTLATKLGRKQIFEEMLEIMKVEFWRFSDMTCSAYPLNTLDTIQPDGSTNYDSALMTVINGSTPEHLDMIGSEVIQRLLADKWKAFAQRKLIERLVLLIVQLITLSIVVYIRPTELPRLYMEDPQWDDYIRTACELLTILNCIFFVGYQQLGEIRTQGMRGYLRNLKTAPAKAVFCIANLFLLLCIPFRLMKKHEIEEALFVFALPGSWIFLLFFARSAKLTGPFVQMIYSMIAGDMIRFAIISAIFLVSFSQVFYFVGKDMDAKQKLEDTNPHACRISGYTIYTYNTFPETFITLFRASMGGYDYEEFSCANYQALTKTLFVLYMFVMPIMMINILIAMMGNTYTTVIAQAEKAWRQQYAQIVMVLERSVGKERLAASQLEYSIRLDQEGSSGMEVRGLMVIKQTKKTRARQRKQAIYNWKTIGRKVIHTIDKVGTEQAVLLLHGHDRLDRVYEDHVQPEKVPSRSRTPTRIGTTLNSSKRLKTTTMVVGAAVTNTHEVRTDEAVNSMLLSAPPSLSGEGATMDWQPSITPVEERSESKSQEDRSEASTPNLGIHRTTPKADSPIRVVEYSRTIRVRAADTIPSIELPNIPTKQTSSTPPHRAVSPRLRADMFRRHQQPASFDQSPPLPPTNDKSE
# T2 sequence (Q9N3Y9 1-756): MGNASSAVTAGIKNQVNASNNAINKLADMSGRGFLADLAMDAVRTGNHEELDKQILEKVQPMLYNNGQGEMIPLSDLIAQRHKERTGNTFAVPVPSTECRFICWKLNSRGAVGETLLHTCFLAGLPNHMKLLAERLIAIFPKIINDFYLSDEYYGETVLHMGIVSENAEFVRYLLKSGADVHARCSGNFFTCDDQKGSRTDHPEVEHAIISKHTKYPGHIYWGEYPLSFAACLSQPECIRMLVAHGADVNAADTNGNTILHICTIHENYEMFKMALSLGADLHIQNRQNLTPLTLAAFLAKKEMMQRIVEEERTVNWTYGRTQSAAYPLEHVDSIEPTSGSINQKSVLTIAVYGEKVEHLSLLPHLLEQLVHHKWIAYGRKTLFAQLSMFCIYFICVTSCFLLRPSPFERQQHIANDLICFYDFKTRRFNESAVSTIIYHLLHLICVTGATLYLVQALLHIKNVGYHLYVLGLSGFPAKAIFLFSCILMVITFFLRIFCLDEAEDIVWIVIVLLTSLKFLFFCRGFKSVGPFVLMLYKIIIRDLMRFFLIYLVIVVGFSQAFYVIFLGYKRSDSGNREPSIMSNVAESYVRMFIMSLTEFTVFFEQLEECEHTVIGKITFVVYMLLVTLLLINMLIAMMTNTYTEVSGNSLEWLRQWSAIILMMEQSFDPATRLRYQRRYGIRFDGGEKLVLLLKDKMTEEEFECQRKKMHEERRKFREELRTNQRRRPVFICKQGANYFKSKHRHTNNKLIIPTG
smiles,measurement,setting,value
NC(=O)c1cccnc1 [nicotinamide],EC50,Nan–Iav TRPV channel,14.4 ± 1 µM
same,EC50,OSM-9–OCR-4 TRPV channel,63.3 ± 13.2 µM
